Test results taken from US20110207760A1, “SN-38 COMPOSITIONS” (priority 2010, published 2011).

Legend:
[1] = Dissolution of SN-38 in 60% (w/w) aqueous SBECD at 34° C. (HPLC); assay type: physicochemical; details: Example 2: 60% (w/w) aqueous SBECD, 48 hours, filtered
Description: (§1) Aliquots of the resultant SN-38 composition in aqueous SBECD were diluted 6 times with water, and further diluted with 10% (w/w) aqueous SBECD to obtain samples having a concentration suitable for HPLC analysis. The samples were analyzed by HPLC using column Symmetry Shield C18 3.5 μ, 50×4.6 mm (Waters), water (0.1% TFA)—acetonitrile (0.1% TFA) gradient and UV detection at 225 nm and 260 nm. The concentrations of SN-38 in the samples were determined by comparison of the area under the peak with the results obtained from analysis of standard solutions.
A sample of 4 g of 60% (w/w) aqueous SBECD was mixed with 2 mg of SN-38, and the mixture was incubated at 34° C. with constant mixing for 48 hours. The mixture was then filtered through 0.2 micrometer nylon filter and analyzed by HPLC as described in Example 1. The concentration of SN-38 in solution was 0.16 mg/g.

[2] = room temperature; cited from earlier work
[3] = Physical stability of SN-38 in diluted aqueous cyclodextrin solutions (HPLC); assay type: physicochemical; details: for Concentration of SN-38 relative to time 0 h: room temperature
Description: as §1
The SN-38 solution prepared as in the Example 1 was diluted with water, by weight, to obtain solutions containing respectively 5% SBECD, 10% SBECD, and 20% SBECD. All solutions were kept at room temperature and periodically analyzed by HPLC using the method described in the Example 1.
A solution of SN-38 in hydroxypropyl beta-cyclodextrin (HPbCD) was prepared using the procedure described in the Example 1. This solution was subsequently diluted with water, by weight, to obtain HPbCD concentration 20%. The relative change of SN-38 concentration in this solution after 70 hours was determined as described above, and is noted in Table 3 below.
A solution of SN-38 in dimethyl beta-cyclodextrin (DMbCD) was prepared using the procedure described in the Example 1. This solution was subsequently diluted with water, by weight, to obtain DMbCD concentration 20%. The relative change of SN-38 concentration in this solution after 22.5 hours was determined as described above, and is noted in Table 4 below.

## CCc1c2c(nc3ccc(O)cc13)-c1cc3c(c(=O)n1C2)COC(=O)[C@]3(O)CC [SN-38, (4S)-4,11-Diethyl-4,9-dihydroxy-1H-pyrano[3′,4′:6,7]indolizino[1,2-b]quinoline-3,14(4H,12H)dione]
[1]
  concentration of SN-38 in solution: 0.16 mg/g
[2]
  solubility in water: about 0.00008 mg/mL
[3]; 5% SBECD, 0 h
  Concentration of SN-38 relative to time 0 h: 100.0
[3]; 5% SBECD, 5 h
  Concentration of SN-38 relative to time 0 h: 96.6
[3]; 5% SBECD, 23 h
  Concentration of SN-38 relative to time 0 h: 91.4
[3]; 5% SBECD, 47 h
  Concentration of SN-38 relative to time 0 h: 85.2
[3]; 5% SBECD, 71 h
  Concentration of SN-38 relative to time 0 h: 79.2
[3]; 5% SBECD, 98 h
  Concentration of SN-38 relative to time 0 h: 77.9
[3]; 10% SBECD, 0 h
  Concentration of SN-38 relative to time 0 h: 100.0
[3]; 10% SBECD, 5 h
  Concentration of SN-38 relative to time 0 h: 97.9
[3]; 10% SBECD, 23 h
  Concentration of SN-38 relative to time 0 h: 94.9
[3]; 10% SBECD, 47 h
  Concentration of SN-38 relative to time 0 h: 90.8
[3]; 10% SBECD, 71 h
  Concentration of SN-38 relative to time 0 h: 87.7
[3]; 10% SBECD, 98 h
  Concentration of SN-38 relative to time 0 h: 85.5
[3]; 20% DMbCD, 0 h
  relative change of SN-38 concentration: 100.0
[3]; 20% DMbCD, 22.5 h
  relative change of SN-38 concentration: 42.5
[3]; 20% HPbCD, 0 h
  relative change of SN-38 concentration: 100.0
[3]; 20% HPbCD, 70 h
  relative change of SN-38 concentration: 63.0
[3]; 20% SBECD, 0 h
  Concentration of SN-38 relative to time 0 h: 100.0
[3]; 20% SBECD, 5 h
  Concentration of SN-38 relative to time 0 h: 99.5
[3]; 20% SBECD, 23 h
  Concentration of SN-38 relative to time 0 h: 97.6
[3]; 20% SBECD, 47 h
  Concentration of SN-38 relative to time 0 h: 96.3
[3]; 20% SBECD, 71 h
  Concentration of SN-38 relative to time 0 h: 95.1
[3]; 20% SBECD, 98 h
  Concentration of SN-38 relative to time 0 h: 93.2
